This is an account of results in patent US11931373B2, “HSP90 activator AHA1 drives production of pathological tau aggregates” (University of South Florida, priority 2017, dated 2024).

The subject of assay [1] is Hsp90. The assay can be described thus: Luciferase refolding assay in PC3-MM2 cells. Format: cell-based. As to conditions: 2 hours; for Hsp90-mediated refolding of denatured luciferase: 0.097-100 μM; for IC50 of Hsp90-mediated luciferase refolding activity: concentrations examined 100, 25, 6.25, 1.56, 0.39 and 0.097 μM. The procedure:
Luciferase refolding assay. Compound dissolved in DMSO at the indicated concentrations or a DMSO control was evaluated in a luciferase refolding assay in PC3-MM2 cells as previously described (Hall, et al. J. Med. Chem. 2016, 59, 925-933) and dose-response curves of the luminescence signal relative to DMSO control were generated using GraphPad Prism 5.0.

Assay [2] addresses T1, Aha1 and Hsp90 complexes (Homo sapiens, UniProt O95433).
T1 construct: endogenous in cells; host or cells: PC3-MM2 cells
In words: Co-immunoprecipitation of Hsp90α with Aha1 from PC3-MM2 cells. Format: cell-based. As to conditions: 10 μM, 24 hours. The procedure:
(§1) Co-immunoprecipitation. Co-immunoprecipitation of Hsp90α with Aha1 from PC3-MM2 and iHek P301L cells incubated with the indicated compounds for 24 hours were performed as previously described (Ghosh, et al. ACS Chem. Biol. 2015, 10, 577-590).

The target of assay [3] is T2, binding of Aha1 to Hsp90 (Homo sapiens, UniProt O95433).
T2 construct: Immunoprecipitated Aha1 from iHEK cells treated±10 μM KU-177 for 24 hours; endogenous in cells; host or cells: iHEK-P301L cells (tetracycline-inducible P301L tau)
In words: Co-immunoprecipitation of Hsp90 with Aha1 from iHEK cells. It counts as cell-based. As to conditions: 10 μM, 24 hours. The procedure: (§2) Cell culture and transfection. iHek-P301L cells (Ghosh, et al. ACS Med. Chem. Lett. 2016, 7, 813-818) and luciferase expressing PC3-MM2 cells (Ghosh, et al. ACS Med. Chem. Lett. 2016, 7, 813-818) were cultured in DMEM media supplemented with 10% FBS and 1% Penicillin-Streptomycin (Invitrogen). Inducible cells were incubated with 3 μg of tetracycline for 72 h. 48 h prior to harvest, transfections were performed with 2.5 μL Lipofectamine 2000 (Invitrogen) per 1 μg of DNA, which was incubated in serum-free Opti-MEM for 5 minutes before adding the mixture dropwise to the cells. KU-177 was added 24 h prior to harvest at indicated concentrations. Cells were harvested in Tsaio TBS buffer (50 mM Tris Base, 274 mM NaCl, 5 mM KCl, pH 8.0) containing protease inhibitors. Samples were prepared as previously described (Ramsden, et al. J. Neurosci. 2005, 25, 10637-10647) to obtain soluble (S1) and sarkosyl-insoluble (P3) fractions.
as §1

In assay [4] the test system is recombinant P301L tau fibrils. In words: Transmission electron microscopy of tau fibrils. It counts as biochemical, human. As to conditions: KU-177 vs DMSO control. The procedure: (§3) Protein Expression. Recombinant human P301L tau, Aha1, Aha1 E67K, p23, FKBP51, FKBP52, and CDC37 were expressed and purified. Hsp90α protein was a kind gift from Dr. Johannes Buchner. Recombinant human P301L tau, Aha1, Aha1 E67K, p23, FKBP51, FKBP52, and CDC37 were cloned into bacterial expression vector, pet28a with a His tag followed by a TEV sequence. Plasmids were transformed into E. coli (BL21) one-shot star cells and plated onto kanamycin-agar plates. Plates were grown at 37° C. for approximately 16 hours. 10 mL LB broth with kanamycin starter cultures were then inoculated with a colony and the starter culture grown for 8 hours. 1 L cultures were then inoculated at 1:100 dilution and grown to OD600 of 0.8. Cultures were induced with the addition of 1 mM IPTG and the incubator temperature was reduced to 16° C. Cultures were then grown for 14 hours. Cells were then pelleted at 3,500×g for 30 minutes and supernatant discarded. Pellets were resuspended in lysis buffer (20 mM Tris-HCl pH 8.0, 500 mM NaCl, 10 mM Imidazole with protease inhibitors) and frozen at −80° C. Bacterial pellets were then thawed and lysed by sonication. Lysates were then spun at 50,000×g for 1 hr. Next, the supernatant was purified by nickel affinity chromatography (Nickel Resin, Fisher #PI88222). Protein purity and expression was then checked by Coomassie stained SDS-PAGE. […]

Assay [5] relates to tau in iHEK-P301L cells. In words: Soluble and sarkosyl-insoluble tau in iHEK-P301L cells (Western blot). Format: cell-based. The settings on record: 10 μM. The procedure: as §2
Western blot and dot blot analysis. Cell and mouse brain tissues samples were analyzed by Western blot using 4-15% SDS gradient gels (BioRad). Antibody dilutions were 1:1000 unless otherwise stated, and all secondary antibodies were used at 1:1000 (Southern Biotech). Blots were developed using ECL (Pierce) on a LAS-4000 mini imager (GE Healthcare). For dot blots, proteins were applied onto a wet nitrocellulose membrane and dried by vacuum. […]
In general terms: A western blot detects proteins with antibodies after separation by electrophoresis.

Assay [6] deals with T3, Recombinant human P301L tau with Hsp90 and Aha1 (Homo sapiens, UniProt O95433).
T3 construct: His tag (with TEV site) (N, cleaved yes); made in house; host or cells: E. coli (BL21) one-shot star, pet28a (tau and Aha1); Hsp90α was a gift from Dr. Johannes Buchner
In words: Thioflavin T fluorescence assay of tau fibril formation. Format: biochemical. The settings on record: 10 μM compound vs DMSO, tau with Hsp90 alone or Hsp90 and Aha1. As for the experimental part:
as §3, with “hr.” for “hr. Next, the supernatant was purified by nickel affinity chromatography (Nickel Resin, Fisher #PI88222). Protein purity and expression was then checked by Coomassie stained SDS-PAGE.”
Thioflavin T Fluorescence Assay. […] Fluorescence was read at 440 nm excitation and 482 nm emission in a BioTek Synergy H1 plate reader at indicated time points. […]

Structures are written as SMILES.

T1 sequence (O95433 whole entry, one chain of several): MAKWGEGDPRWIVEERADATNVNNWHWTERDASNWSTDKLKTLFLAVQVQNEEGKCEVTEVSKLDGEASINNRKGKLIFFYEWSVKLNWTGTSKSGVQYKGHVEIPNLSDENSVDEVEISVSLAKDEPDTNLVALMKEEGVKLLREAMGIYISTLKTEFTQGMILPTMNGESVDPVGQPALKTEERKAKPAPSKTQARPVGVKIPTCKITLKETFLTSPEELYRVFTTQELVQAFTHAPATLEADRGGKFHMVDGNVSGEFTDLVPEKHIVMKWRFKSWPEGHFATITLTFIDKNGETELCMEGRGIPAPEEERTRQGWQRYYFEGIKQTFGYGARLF
T3 sequence (O95433 whole entry, stated change not applied): as the sequence (O95433 whole entry, one chain of several) above

As for `COc1cccc(-c2cc(C(=O)Nc3cc4ccc(O[C@@H]5OC(C)(C)[C@H](OC)C(O)[C@@H]5O)c(OC)c4oc3=O)ccc2OC)c1` (stereo partly shown) [KU-174], the “Hsp90-mediated refolding of denatured luciferase” value (shortened to “Hsp90-mediated refolding”) in assay [1] is on record as “inhibited”. Also, the “Aha1 and Hsp90 complexes (immunoprecipitation of Aha1, Western blot)” value (from here on “Aha1 and Hsp90 complexes”) in assay [2] is on record as “inhibited”.

Consider `COc1cccc(-c2cc(C(=O)Nc3cc4ccc(OC(C)=O)c(OC)c4oc3=O)ccc2OC)c1` [KU-177], for which, in assay [3], the “binding of Aha1 to Hsp90 (immunoprecipitation of Aha1, Western blot)” value is reported as “inhibited the binding of Aha1 to Hsp90”. In assay [1], the “Hsp90-mediated refolding” value is given as “did not inhibit” and the “IC50 of Hsp90-mediated luciferase refolding activity” value was “higher than the range of concentrations examined here”. The “tau fibril formation observed by TEM” value in assay [4] is reported as “robust reduction in tau fibril formation”. For the same compound, the “Aha1 and Hsp90 complexes” value in assay [2] was “inhibited”. Also, the sarkosyl-insoluble tau result in assay [5] (iHEK-P301L cells transfected with Aha1-WT, Aha1-E67K or empty vector) is “reduce insoluble tau”. For the same compound, the “soluble, phosphorylated tau” value in assay [5] (iHEK-P301L cells) is “increased soluble, phosphorylated tau”. Besides, in assay [6], the “Recombinant P301L tau fibril formation measured by ThT fluorescence” value is reported as “significantly reduce tau fibril formation”.

Regarding `COc1cccc(-c2cc(C(=O)Nc3cc4ccc(O)c(OC)c4oc3=O)ccc2OC)c1` [KU-308], in assay [1], the “Hsp90-mediated refolding” value is given as “did not inhibit” and the “IC50 of Hsp90-mediated luciferase refolding activity” value was “higher than the range of concentrations examined here”. In addition, the “Aha1 and Hsp90 complexes” value in assay [2] is listed as “inhibited”.
